Several values for one entry are separate records, joined by “and”; a condition that tells them apart may be missing. Equal values may be shown once.
Key:
[1] = system: ERK1/2; test: Human phosphokinase array, ERK1/2; assay type: cell-based
From the text: The kinome tree representation (Figure 7C), which was generated by raising the Kinase Score cut-off to >1.2, confirmed that, unlike tirbanibulin and our prototype molecule KX1-136, 4e’s effects were more observable on kinases other than the Src family such as the Eph and TEC families. […] Therefore, we screened compound 4e using the Human Phospho-Kinase Array® kit from R&D systems (Minneapolis, MN, USA). In this system, 35 phosphorylated YK and serine-threonine kinase (STK) enzymes in the untreated (control) and treated (test) HL60 cell lysates were captured on nitrocellulose membrane, pre-spotted with phosphokinase-specific capture antibodies, and then visualized by detection antibody cocktails (Figure 8). The difference in the spot intensity between untreated (control) and treated cells is proportional to change in the amount of the phosphorylated protein induced by 4e.
The phosphorylation profile of 48 kinases was performed using the Proteome Profiler Human Phospho-Kinase Antibody Array Kit by R&D Systems (Minneapolis, MN, USA) according to the protocol. Briefly, the total cellular protein was extracted using the Lysis buffer and was quantified using Bio-Rad DC Protein Assay kit (Hercules, CA, USA). Nitrocellulose membrane set (A&B), pre-spotted with kinase-specific capture antibodies, were first blocked with Array Buffer-1 at RT for 30 min on a rocking platform shaker. Approximately 600 µg of protein concentrate was diluted in the buffer provided and was added onto the membrane set, and the membranes were incubated overnight at 4°C in an 8-well plate. Subsequently, membranes were washed with Wash Buffer and incubated with appropriate Detection Antibody cocktails for 2 h at RT. Streptavadin-HRP (1:2000) was added onto membranes and incubated for 30 min at RT. Membranes were washed, and Chemiluminescent Detection Reagents 1&2 were applied in equal volumes for detection. The signals were detected on C-DiGit®Blot Scanner (LI-COR, Odyssey Imaging Systems, Lincoln, Nebraska, USA) using Image Studio 5.0 software.

[2] = biological target: T1, Ros (Homo sapiens, UniProt P08922); test: PamChip tyrosine kinase microarray, Ros; assay type: biochemical; conditions: 4e 0.1 µM, HL60 lysate
T1 construct: endogenous in cells; host or cells: HL60 lysate
T1 sequence (P08922 28-2347): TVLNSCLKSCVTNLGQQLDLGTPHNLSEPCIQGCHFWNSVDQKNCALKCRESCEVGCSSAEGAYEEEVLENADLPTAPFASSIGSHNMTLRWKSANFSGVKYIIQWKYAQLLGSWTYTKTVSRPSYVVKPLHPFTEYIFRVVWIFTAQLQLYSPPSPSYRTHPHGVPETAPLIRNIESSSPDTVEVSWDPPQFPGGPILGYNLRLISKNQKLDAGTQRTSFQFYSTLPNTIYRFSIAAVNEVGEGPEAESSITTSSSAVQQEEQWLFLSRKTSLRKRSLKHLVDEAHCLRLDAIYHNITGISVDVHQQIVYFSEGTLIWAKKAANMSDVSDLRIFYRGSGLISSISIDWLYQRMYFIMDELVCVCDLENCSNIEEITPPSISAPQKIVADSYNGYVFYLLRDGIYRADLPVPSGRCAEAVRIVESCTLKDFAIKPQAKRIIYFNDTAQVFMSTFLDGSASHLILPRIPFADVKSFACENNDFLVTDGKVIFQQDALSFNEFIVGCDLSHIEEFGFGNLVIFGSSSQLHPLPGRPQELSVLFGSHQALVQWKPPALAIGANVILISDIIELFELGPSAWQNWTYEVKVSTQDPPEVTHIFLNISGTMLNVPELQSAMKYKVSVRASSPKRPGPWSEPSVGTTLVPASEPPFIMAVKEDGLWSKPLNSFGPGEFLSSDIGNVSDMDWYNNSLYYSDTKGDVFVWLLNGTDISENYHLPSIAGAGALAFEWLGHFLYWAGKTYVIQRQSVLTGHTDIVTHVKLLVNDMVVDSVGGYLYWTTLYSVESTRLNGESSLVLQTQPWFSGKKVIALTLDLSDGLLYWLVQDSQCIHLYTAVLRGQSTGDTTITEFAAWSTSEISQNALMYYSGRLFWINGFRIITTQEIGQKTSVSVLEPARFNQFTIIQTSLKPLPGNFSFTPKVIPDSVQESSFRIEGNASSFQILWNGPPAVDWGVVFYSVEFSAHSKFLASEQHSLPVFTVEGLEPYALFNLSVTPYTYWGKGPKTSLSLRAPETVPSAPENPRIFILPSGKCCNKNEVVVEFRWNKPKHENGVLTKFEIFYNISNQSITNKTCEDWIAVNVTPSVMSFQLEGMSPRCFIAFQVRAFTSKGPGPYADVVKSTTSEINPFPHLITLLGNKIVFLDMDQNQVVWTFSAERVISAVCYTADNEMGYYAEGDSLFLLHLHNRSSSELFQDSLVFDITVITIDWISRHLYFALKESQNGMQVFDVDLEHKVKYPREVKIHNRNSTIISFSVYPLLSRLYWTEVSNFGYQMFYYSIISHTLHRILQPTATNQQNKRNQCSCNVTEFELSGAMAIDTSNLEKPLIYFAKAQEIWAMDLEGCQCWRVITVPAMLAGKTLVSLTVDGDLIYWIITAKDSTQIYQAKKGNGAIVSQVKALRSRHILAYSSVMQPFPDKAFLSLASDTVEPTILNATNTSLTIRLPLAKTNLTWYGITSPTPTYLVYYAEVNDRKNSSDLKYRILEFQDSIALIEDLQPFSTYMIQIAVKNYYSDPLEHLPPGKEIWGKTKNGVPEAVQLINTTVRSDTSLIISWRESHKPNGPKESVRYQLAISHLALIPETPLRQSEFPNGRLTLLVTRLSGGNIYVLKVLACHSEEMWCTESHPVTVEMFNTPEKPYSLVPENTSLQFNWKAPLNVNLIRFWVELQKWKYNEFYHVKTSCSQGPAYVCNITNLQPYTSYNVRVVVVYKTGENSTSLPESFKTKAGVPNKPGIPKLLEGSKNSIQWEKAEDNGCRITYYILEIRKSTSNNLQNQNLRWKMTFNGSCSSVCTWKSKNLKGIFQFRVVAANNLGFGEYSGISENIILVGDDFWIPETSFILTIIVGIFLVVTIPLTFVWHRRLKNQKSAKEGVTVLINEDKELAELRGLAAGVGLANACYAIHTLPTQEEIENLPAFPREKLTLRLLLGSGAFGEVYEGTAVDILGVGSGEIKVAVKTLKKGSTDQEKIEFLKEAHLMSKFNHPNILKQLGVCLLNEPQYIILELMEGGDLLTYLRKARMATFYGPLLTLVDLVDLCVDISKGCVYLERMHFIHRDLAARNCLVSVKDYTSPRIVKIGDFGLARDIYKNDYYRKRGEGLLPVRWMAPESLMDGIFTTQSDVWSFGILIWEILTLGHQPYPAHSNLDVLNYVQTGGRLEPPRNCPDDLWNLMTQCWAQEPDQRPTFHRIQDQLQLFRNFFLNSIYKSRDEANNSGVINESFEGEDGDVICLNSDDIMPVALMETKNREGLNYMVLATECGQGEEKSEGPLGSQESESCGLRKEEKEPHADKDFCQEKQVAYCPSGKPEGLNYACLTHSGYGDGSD
Protocol: (§1) The changes in kinase activities induced by treatment with 4e were monitored within the HL60 cell lines using PamGene’s (Hertogenbosch, Netherlands) PamChip® peptide microarray profiler, which quantifies the activities of 144 tyrosine kinases (YK) ([29], [30]) (Figure 7). Results are provided as a log fold change (LFC) heatmap and Mean Kinase Statistic. From the LFC it is apparent that compound 4e, at a concentration of 0.1 µM, induced sizable changes to the activity of several kinases within the cell signaling YK profile (Figure 7A).
(§2) An Upstream Kinase tool was used to generate a putative list of kinases responsible for phosphorylating the phospho-sites on the PamChip (Figure 7B) ([31]). It is an interpretation and is highly dependent on the contents of the underlying phosphorylation databases. A Kinase Score was used for ranking kinases based on their significance and specificity in terms of the set of peptides used for the corresponding kinase. Kinase Statistics indicates the overall change of the peptide set that represents the kinase. Kinase statistics value <0 indicates lower kinase activity in the compound spiked lysate and vice versa ([32], [33]). Table 5 lists the 20 most changed kinases within treated HL60 cell lysates by 0.1 μM 4e, ranked according to their Kinase Score.
(§3) The compound 4e was spiked into HL60 cell lysate at different concentrations (0.001, 0.01, 0.1, 1, 10 and 50 μM). In addition, DMSO was also spiked in HL60 lysate at low concentration (2% v/v) as control. Samples were profiled on PamGene’s Tyrosine Kinase (PTK) arrays in technical replicates, covering a total of 196 phosphorylation sites. Frozen HL60 cultured cell pellet was sent to PamGene. At PamGene, cells were lysed using a lysis buffer and proteases inhibitors cocktail. Protein concentration was measured using standard Bradford assay as per PamGene SOPs. These lysates were further used for generating the PTK activity profiles. For spiking, 4e was received as powder form and dissolved in DMSO at PamGene facility followed by storing at -20°C in small aliquots. PamGene used its in-house bioinformatics toolbox in combination with other methods to generate hypotheses of signaling pathways.

[3] = biological target: T2, Fgr (Homo sapiens, UniProt P09769); test: PamChip tyrosine kinase microarray, Fgr; assay type: biochemical; conditions: 4e 0.1 µM
T2 construct: endogenous in cells; host or cells: HL60 lysate
T2 sequence (P09769 whole entry): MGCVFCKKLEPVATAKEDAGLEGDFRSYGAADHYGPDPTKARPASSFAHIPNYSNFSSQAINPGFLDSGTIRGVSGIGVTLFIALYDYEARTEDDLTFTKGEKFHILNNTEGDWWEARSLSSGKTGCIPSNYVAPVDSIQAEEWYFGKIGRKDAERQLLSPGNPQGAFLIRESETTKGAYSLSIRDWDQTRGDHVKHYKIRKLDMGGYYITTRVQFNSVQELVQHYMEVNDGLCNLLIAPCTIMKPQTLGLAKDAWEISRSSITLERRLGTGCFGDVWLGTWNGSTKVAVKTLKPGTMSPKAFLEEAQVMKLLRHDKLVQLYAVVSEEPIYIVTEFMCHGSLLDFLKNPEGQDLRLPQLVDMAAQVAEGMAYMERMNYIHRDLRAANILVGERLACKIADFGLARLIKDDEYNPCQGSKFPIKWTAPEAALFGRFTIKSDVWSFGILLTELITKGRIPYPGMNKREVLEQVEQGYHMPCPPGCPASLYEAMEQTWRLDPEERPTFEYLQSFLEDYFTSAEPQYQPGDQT
Protocol: as §1, §2, §3

[4] = biological target: T3, TEC (Homo sapiens, UniProt P42680); test: PamChip tyrosine kinase microarray, TEC; assay type: biochemical; conditions: 4e 0.1 µM, HL60 lysate
T3 construct: endogenous in cells; host or cells: HL60 lysate
T3 sequence (P42680 1-631): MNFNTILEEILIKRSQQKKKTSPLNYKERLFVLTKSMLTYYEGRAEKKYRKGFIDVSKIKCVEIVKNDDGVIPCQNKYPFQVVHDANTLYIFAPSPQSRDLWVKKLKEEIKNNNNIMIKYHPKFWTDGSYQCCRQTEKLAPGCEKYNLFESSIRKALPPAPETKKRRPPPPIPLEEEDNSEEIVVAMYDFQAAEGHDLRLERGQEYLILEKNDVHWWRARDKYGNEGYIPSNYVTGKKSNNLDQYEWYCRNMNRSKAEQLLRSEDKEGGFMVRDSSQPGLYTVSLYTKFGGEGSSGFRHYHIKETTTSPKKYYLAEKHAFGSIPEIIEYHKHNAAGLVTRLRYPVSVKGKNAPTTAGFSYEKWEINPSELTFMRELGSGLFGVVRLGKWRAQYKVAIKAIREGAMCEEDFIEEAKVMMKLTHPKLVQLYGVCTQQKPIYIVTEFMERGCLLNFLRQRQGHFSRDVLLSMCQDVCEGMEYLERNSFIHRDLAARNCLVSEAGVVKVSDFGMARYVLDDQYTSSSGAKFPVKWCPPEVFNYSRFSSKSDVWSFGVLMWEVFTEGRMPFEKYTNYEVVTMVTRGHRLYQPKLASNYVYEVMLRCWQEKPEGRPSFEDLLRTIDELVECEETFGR
Protocol: as §1, §2, §3

O=C(Cc1ccc(NC(=O)c2cccc(Cl)c2)cc1)NCc1ccccc1 [Compound 4e, N-(4-(2-(benzylamino)-2-oxoethyl)phenyl)-3-chlorobenzamide]
reduction of ERK1/2 activity ([1]; HL60, kinase profiling): > 99% | phosphokinase signal after 4e exposure, ERK1/2 ([1]; HL60 cell lysate, treated): 1.05 | % Change, ERK1/2 ([1]; treated vs untreated HL60): -99.41% | Change in Signal, ERK1/2 ([1]; treated vs untreated HL60): -177.83 | Mean Final Score [2]: 2.0991 | Mean Kinase Statistic [2]: -0.9704 | Mean Significance Score [2]: 0.9578 | Mean Specificity Score [2]: 1.1413 | PamGene Ranking ([3]; HL60): 7 | Mean Final Score ([3]; HL60 lysate): 2.2023 | Mean Kinase Statistic ([3]; HL60 lysate): -0.7971 | Mean Significance Score ([3]; HL60 lysate): 1.1688 | Mean Specificity Score ([3]; HL60 lysate): 1.03 and 1.0335 | Mean Final Score [4]: 1.9733 | Mean Kinase Statistic [4]: -0.5256 | Mean Significance Score [4]: 1.3350 | Mean Specificity Score [4]: 0.6383

Source: paper PMC9166630, “SAR Probing of KX2-391 Provided Analogues With Juxtaposed Activity Profile Against Major Oncogenic Kinases” (Frontiers in Oncology, 2022)
